Assay results as given in US8871801B2, “Method of treating acquired perforating dermatosis with cantharidin” (priority 2011, dated 2014).

Key:
[1] = test system: acquired perforating dermatosis lesions; assay: Topical cantharidin treatment of a patient with acquired perforating dermatosis (case example); format: in vivo, human
From the text: A person presented a six-month history of pruritic, hyperpigmented papules with central, hyperkeratotic plugs of bilateral lower extremities (FIG. 1). The trunk, head, upper extremities, volar surfaces and mucous membranes were spared. Their past medical history was significant for chronic renal failure treated for the past four years with peritoneal dialysis, a 30-year history of insulin-dependent diabetes mellitus, hypercholesterolemia, hypertension, coronary artery bypass, hypothyroidism, and hyperparathyroidism. There was no family history of similar skin lesions. […] The clinical and histopathologic features supported the diagnosis of an acquired perforating disorder associated with renal disease.
Over the next six months, the patient was treated with intralesional triamcinolone at 10 mg/cc, topical clobetasol, diflorasone, tacrolimus, tazarotene and ammonium lactate. They declined narrowband UVB phototherapy. They were also given oral hydroxine and fexofenadine for their pruritus.
While a therapy of fexofenadine […] bid, ammonium lactate 12% cream bid, and tazarotene 0.1% cream qd were continued, cantharidin at 0.7 wt % (Canthacur® Pharmascience Inc., Montreal, Canada) was applied to lesions on the right medial calf. Cantharidin was applied for eight hours under occlusion. The vehicle was a solution containing cantharidin 0.7 wt % in acetone, castor oil, collodion, ethoxyethanol, ethyl cellulose, and polyoxyethylene octyl phenol. “bid” means twice per day. “qd” means once per day.
The film was then occluded using Blenderm® tape, which was kept on for 8 hours before it was washed off. Within 2 days, multiple bullae formed at the sites of cantharidin application (FIG. 2). There was vesicle formation at site of cantharidin application. The patient reported mild pain at these sites for the first 2 days. A week after application, a biopsy of the blistered lesion was taken. […] The blister roofs were then removed by paring them with a 15-blade at the edge of the lesion to find the blister plane and then lifting upwards. […] The lichenified papules and hyperkeratotic cores were no longer present and the leg was smooth.
Pruritus was resolved in the treated lesions. Cantharidin was subsequently applied under Tegaderm® dressing (3M Corp.) occlusion to multiple lesions of both legs. […] In a five-month follow up, the patient reported no pruritus on the treated lesions. Treated lesions were smooth. […] Cantharidin provides symptomatic relief but may not prevent the formation of new lesions.

skin = conditions: general statement in the description; cited from earlier work

C[C@@]12C(=O)OC(=O)[C@]1(C)[C@H]1CC[C@@H]2O1 [cantharidin, Cantharidin]
biopsy of the blistered lesion (histology) ([1]; a week after application of cantharidin 0.7 wt %): focal acantholysis and scattered necrotic keratinocytes
pruritus in the treated lesions ([1]; after cantharidin 0.7 wt % treatment and debridement): resolved
time to formation of multiple bullae at the sites of cantharidin application ([1]; cantharidin 0.7 wt % solution, lesions on right medial calf, 8 hours under occlusion (Blenderm tape)): ≤ 2 days
pain reported by the patient at application sites ([1]; cantharidin 0.7 wt %, 8 hours under occlusion, first 2 days): mild pain
effectiveness of treatment on multiple lesions of both legs ([1]; cantharidin applied under Tegaderm dressing occlusion): effective in most lesions
appearance of treated lesions at follow up ([1]; five-month follow up): smooth
formation of new lesions at follow up ([1]; five-month follow up): A few new lesions formed
pruritus on the treated lesions at follow up ([1]; five-month follow up): no pruritus
time to blister formation after topical treatment (skin): 24 to 48 h
